Experimental data published in patent US5776892A, “Anti-inflammatory peptides” (Curative Health Services, Inc., priority 1994, dated 1998).
Where two headings read alike, the source gives them in different places. No end group written: not given here.

Key:
[1] = system: carrageenan-induced peritonitis; assay: Carrageenan-induced peritonitis, inflammatory cell influx in peritoneal lavage; format: in vivo, mouse; conditions: 60 mg/kg/day minipump
Method: (§1) Mice (C57BL/6UAF, females, 12 weeks old) were implanted with Alzet mini pumps set to deliver 60 mg CT-112/kg/day. Six days post-implantation, the mice were challenged with an intraperitoneal injection of 0.3 ml of carrageenan in PBS (10 mg/ml). The peritoneal cavity was lavaged with 15 ml of Hank's Balanced Salt Solution (Ca^2+ - and Mg^2+ -free) at 24, 48 and 72 hr post-challenge. The lavage fluid was centrifuged (500 g, 5 min), fixed with LeukoStat fixative and stained with LeukoStat staining solution. The slides were analyzed under a microscope for the different types of inflammatory cells, such as macrophages, lymphocytes and neutrophils. At the 48-hr time point, 5 control mice were also lavaged.

[2] = system: myeloperoxidase activity in mouse ear; assay: Myeloperoxidase activity in AA-treated mouse ear tissue (PMN marker); format: in vivo; conditions: Table II
Method: Myeloperoxidase activity in ear tissue was measured as a marker for the presence or absence of polymorphonuclear leukocytes (PMNs) (Barone et al., 1991, J. Neurosci. Res. 29:336-345). After measurement of ear thickness, ears were dissected from the mice and homogenized in 50 mM Tris-HCL, pH 7.4 at 4° C. to give a 10% (w/v) homogenate. Aliquots of the homogenate were used to determine the amount of myeloperoxidase activity present in the tissue using o-dianisidine (Sigma Chem Co., St. Louis Mo.) and hydrogen peroxide as substrates and monitoring chromophore generation at 460 nm (Barone et al., 1991, J. Neurosci. Res. 29:336-345).

[3] = system: type-II collagen-induced arthritis; format: in vivo, mouse
Method: Mice (DBA/1, 10-12 weeks old, Jackson Laboratories) were randomly assigned to one of 3 groups […]. CT-112 (SEQ. ID NO: 1) was prepared for injection by dissolving in sterile PBS. CT-112 (SEQ. ID NO: 1) was administered daily according to the following schedule: a) Control animals (0.1 ml of sterile PBS) (7 mice); b) Low dose CT-112 (0.1 ml sterile PBS containing 0.25 mg CT-112 at 10 mg/kg) (8 mice); and c) High dose CT-112 (0.1 ml sterile PBS containing 2.5 mg of CT-112 at 100 mg/kg) (8 mice). Three days after initial dosing with CT-112 (SEQ. ID NO: 1), all mice were injected intradermally at the base of the tail with 100 μg of bovine type-II collagen in Freund's complete adjuvant. Mice were monitored daily for the onset of disease, and weighed twice weekly with overall health status noted. Arthritis-affected animals were clinically assessed 5 times per week until 10 weeks post-immunization. Paw measurements were taken 3 times per week. Mice lacking signs of arthritis 10 weeks post-immunizationwere considered disease-free. All mice were pre-bled prior to the start of the trial, subsequently again at 2 and 4 weeks post-immunization, again at the onset of CIA, and finally at the termination of the study. Sera were separated and stored at -80° C. ELISA assays were performed to determine anti-collagen antibody concentrations. Spleen and lymph nodes were removed at sacrifice, and single cell suspensions prepared therefrom. Mitogen responses to Con A and LPS, as well as antigen-specific responses to type-II collagen, were determined. Appropriate statistical comparisons (Chi square, Student's T-test and non-parametric median comparisons) were performed using SPSS/PC software to assess the influence of CT-112 (SEQ. ID NO: 1) at both low and high doses on the incidence, onset, severity and progression of collagen-induced arthritis, the antibody response to collagen, T-cell and B-cell mitogen responses, and T-cell specific responses to type-II collagen.

neutrophils = assay: Neutrophil chemotaxis to interleukin-8; format: cell-based; conditions: 15 min pre-exposure; read at 1 hr; FIG. 5
Method: The ability of CT-112 (SEQ. ID NO: 1) to inhibit chemotaxis of neutrophils in response to a variety of agents was assessed using Neuroprobe chemotaxis chambers. For these assays, neutrophils were resuspended in Hank's balanced salt solution with Ca^2+ and Mg^2+ to give a 5×10^6 cells/ml suspension after the cells were labeled with 1',7'-bis(2-carboxyethyl)-5-(6)-carboxyfluorescein. The neutrophils were exposed to CT-112 (SEQ. ID NO: 1) for approximately 15 min prior to addition to the chemotaxis chambers. CT-112 (SEQ. ID NO: 1) was present in both the top and bottom of the chambers, and the chemoattractant, either f-Met-Leu-Phe, leukotriene B4 or interleukin-8, was added to the bottom of chamber. Cells which had migrated through the membrane were determined by fluorescence at 530 nm at 1 hr after initiation of the assay.

[4] = system: mouse bone marrow polychromatic erythrocyte; conditions: in vivo
Salmonella = Salmonella reverse mutation assay; format: cell-based; conditions: 100-5,000 μg/ml, with or without rat liver microsomal enzyme activation
Excerpt: The mutagenic potential of CT-112 (SEQ. ID NO: 1) has been assessed.

[5] = system: carrageenan-induced peritonitis; assay: Carrageenan-induced peritonitis, LTB4 and PGE2 in peritoneal lavage fluid; format: in vivo, mouse; conditions: 60 mg/kg/day; 24 hr post-challenge
Method: as §1, with “lavaged. In a separate study, the peritoneal lavage fluid was analyzed for total leukotriene B4 (LTB4) and prostaglandin E2 (PGE2) content at 24 hr post-challenge (Griswold et al., 1991, Biochem. Pharmacol. 42(4):825-831).” for “lavaged.”

Sequence: TTSQVRPR [CT-112, octapeptide derived from platelet factor 4]
- Absolute Cell Number, Lymphocytes ([1]; 24 hr post carrageenan): 16.9 ± 5.9
- Absolute Cell Number, Macrophages ([1]; 24 hr post carrageenan): 19.5 ± 10
- Absolute Cell Number, Neutrophils ([1]; 24 hr post carrageenan): 106 ± 29
- Absolute Cell Number, Lymphocytes ([1]; 48 hr post carrageenan): 12.5 ± 7.6
- Absolute Cell Number, Macrophages ([1]; 48 hr post carrageenan): 126 ± 43
- Absolute Cell Number, Neutrophils ([1]; 48 hr post carrageenan): 134 ± 77
- Absolute Cell Number, Lymphocytes ([1]; 72 hr post carrageenan): 45.1 ± 42
- Absolute Cell Number, Macrophages ([1]; 72 hr post carrageenan): 255 ± 125
- Absolute Cell Number, Neutrophils ([1]; 72 hr post carrageenan): 48.4 ± 28
- Myeloperoxidase Activity ([2]; 0.05 mg/animal/day minipump): 19.6 ± 15.6 μmole of chromophore formed/mi
- Myeloperoxidase Activity ([2]; 0.1 mg/animal/day minipump): 17.0 ± 9.6 μmole of chromophore formed/mi
- Myeloperoxidase Activity ([2]; 1.0 mg/animal/day minipump): 14.7 ± 13.3 μmole of chromophore formed/mi
- anti-collagen antibody reduction in serum ([3]; 4 wks post-immunization, high dose group, p=0.028, FIG. 14): statistically significant
- effects on synovitis and pannus (histopathology) ([3]; both high and low doses, FIG. 13): not significant
- disease-induced loss of joint architecture (histopathology) ([3]; both high and low doses, p≤0.05, FIG. 13): significantly reducing
- spleen cell response to Con A and to LPS ([3]; cells from treated mice): neither immunosuppression nor immunoactivation
- final incidence of CIA ([3]; high dose, 100 mg/kg daily): 50%
- Maximum paw swelling ([3]; low and high dose): not influenced
- final incidence of CIA ([3]; low dose, 10 mg/kg daily): 62.5%
- involved paws in remission at the conclusion of the trial ([3]; low dose, 10 mg/kg daily): 25%
- number of involved paws ([3]; low dose, 10 mg/kg daily, p=0.035 vs control, FIG. 11): significantly fewer paws
- chemotactic migration of neutrophils to interleukin-8 (neutrophils): not to interleukin-8
- micronuclei [4]: did not induce a significant increase in micronuclei
- number of revertants (histidine independent growth) (Salmonella): did not cause an increase in the number of revertants
- LTB4 (pg in peritoneal lavage) [5]: 16.8 ± 11.5 pg
- PGE2 (pg in peritoneal lavage) [5]: 13.1 ± 6.9 pg
